Assay results from US6297267A, “4,5-diaryloxazole compounds” (Fujisawa Pharmaceutical Co., Ltd., priority 1997, dated 2001).

Tested on: Human Platelet
Test: Inhibition of Human Platelet Aggregation Induced by ADP
Assay type: cell-based
Details: 2 min; Test Compound 1.0 × 10^-7 M; human platelet rich plasma; ADP 2.5 μM; 2 minutes at 37° C
Experimental: Inhibition of Human Platelet Aggregation Induced by ADP
Human blood was collected from healthy volunteers and mixed with 1/10 volume of 3.8% sodium citrate solution, pH 7.4. The citrate blood was centrifuged at 150×g for 10 minutes and the platelet rich plasma (PRP) was removed. The remaining blood was centrifuged for a further 10 minutes at 1500×g to prepare the platelet poor plasma (PPP), which was used as a reference for platelet aggregation. Aggregation studies were carried out using HEMATRACER 801 (NBS, Japan), a 8 channel aggregometer. 25 μl of a solution of Test compound in Tris-acetate buffer pH 7.4 and 225 μl of PRP were mixed and stirred at 1000 rpm for 2 minutes at 37° C. Aggregation was induced by ADP (adenosin 5'-diphosphate) solution at the final concentration of 2.5 μM.

SMILES | inhibition at 0.1 µM [%]
O=C(O)COc1cccc(CC2(O)CCCC=C2c2nc(-c3ccccc3)c(-c3ccccc3)o2)c1 (stereo not drawn) [(1)] | > 90
O=C(O)COc1cccc(C[C@@H]2CCC(O)C=C2c2nc(-c3ccccc3)c(-c3ccccc3)o2)c1 (stereo partly drawn) [(2)] | > 90
O=C(O)COc1cccc(C[C@@H]2CCCC3OC32c2nc(-c3ccccc3)c(-c3ccccc3)o2)c1 (stereo partly drawn) [(3)] | > 90
